Measured values reported in patent US20240269304A1, “BCL-XL INHIBITOR ANTIBODY-DRUG CONJUGATES AND METHODS OF USE THEREOF” (Novartis AG, priority 2020, published 2024).
Like-named read-outs stand apart in the source and are kept apart here.

Columns and labels:
ALL-SILL (T-ALL) = experiment: CellTiter-Glo viability 72 h, single agent or 1/1 combination, ALL-SIL (Example 9); type: cell-based; details: single agent or 1/1 combination as labelled
Experimental: Cell lines were cultured in the media described above at 37° C. in a humidified atmosphere containing 5% CO2. […] Effects of payloads or ADCs on cell viability were assessed after 3 days of incubation at 37° C./5% CO2 by quantification of cellular ATP levels using CellTiter-Glo reagent (Promega Ref: G7571) at 75 μL reagent/well. All the conditions were tested in triplicates. Luminescence was quantified on a multipurpose plate reader. IC50s were calculated using standard four-parametric curve fitting.

LOUCY (T-ALL) = experiment: CellTiter-Glo viability 72 h, single agent or 1/1 combination, LOUCY (Example 9); type: cell-based; details: single agent or 1/1 combination as labelled
Experimental: (§1) Cell lines were cultured in the media described above at 37° C. in a humidified atmosphere containing 5% CO2. Cells were seeded in 96 well clear bottom plates (96 well clear-bottom, white, Corning reference 3903) and exposed to the payloads or ADCs at single agents or in 1/1 combinations with vincristine, ABT-199 or compound A2 for 72 h (serially diluted; 9 concentrations each, triplicates). Effects of payloads or ADCs on cell viability were assessed after 3 days of incubation at 37° C./5% CO2 by quantification of cellular ATP levels using CellTiter-Glo reagent (Promega Ref: G7571) at 75 μL reagent/well. All the conditions were tested in triplicates. Luminescence was quantified on a multipurpose plate reader. IC50s were calculated using standard four-parametric curve fitting. […] Each experiment was performed at least twice, with results being reproducible.

MM1S (MM) = experiment: CellTiter-Glo viability 72 h, single agent or 1/1 combination, MM1S (Example 9); type: cell-based; details: Homo sapiens, MM1.S, single agent or 1/1 combination as labelled
Experimental: as §1

HPB-ALL (T-ALL) = experiment: CellTiter-Glo viability 72 h, single agent or 1/1 combination with vincristine, ABT-199 or Compound A2, HPB-ALL (Example 9); type: cell-based; details: Homo sapiens, HPBALL, single agent or 1/1 combination as labelled
Experimental: as §1

SUDHL8 (DLBCL) = experiment: CellTiter-Glo viability 72 h, single agent or 1/1 combination, SUDHL8 (Example 9); type: cell-based; details: Homo sapiens, SU-DHL-8, single agent or 1/1 combination as labelled
Experimental: as §1

H1650 cells = experiment: CellTiterGlo (CTG) cell viability, 3D, 120 h, H1650 (Example 8); type: cell-based, human; details: Homo sapiens, NCI-H1650, H1650 3D
[1] = mean, read-out: ALL-SILL (T-ALL) IC50 mean
[2] = n1, read-out: ALL-SILL (T-ALL) IC50 n1
[3] = n2, read-out: ALL-SILL (T-ALL) IC50 n2
[4] = mean, read-out: LOUCY (T-ALL) IC50 mean
[5] = n1, read-out: LOUCY (T-ALL) IC50 n1
[6] = n2, read-out: LOUCY (T-ALL) IC50 n2
[7] = mean, read-out: MM1S (MM) IC50 mean
[8] = n1, read-out: MM1S (MM) IC50 n1
[9] = n2, read-out: MM1S (MM) IC50 n2
[10] = mean, read-out: HPB-ALL (T-ALL) IC50 mean
[11] = n1, read-out: HPB-ALL (T-ALL) IC50 n1
[12] = n2, read-out: HPB-ALL (T-ALL) IC50 n2
[13] = mean, read-out: SUDHL8 (DLBCL) IC50 mean
[14] = n1, read-out: SUDHL8 (DLBCL) IC50 n1
[15] = n2, read-out: SUDHL8 (DLBCL) IC50 n2

IC50 (MM1S (MM); [7]) | IC50 (MM1S (MM); [8]) | IC50 (MM1S (MM); [9]) | IC50 (SUDHL8 (DLBCL); [13]) | IC50 (SUDHL8 (DLBCL); [14]) | IC50 (SUDHL8 (DLBCL); [15]) | IC50 (H1650 cells; experiment n1, read-out: H1650 3D CTG IC50 n1) | IC50 (H1650 cells; experiment n2, read-out: H1650 3D CTG IC50 n2) | IC50 (H1650 cells; mean of n1 and n2, read-out: H1650 3D CTG IC50 Mean of n1 and n2) | Compound | IC50 (ALL-SILL (T-ALL); [1]) | IC50 (ALL-SILL (T-ALL); [2]) | IC50 (ALL-SILL (T-ALL); [3]) | IC50 (LOUCY (T-ALL); [4]) | IC50 (LOUCY (T-ALL); [5]) | IC50 (LOUCY (T-ALL); [6]) | IC50 (HPB-ALL (T-ALL); [10]) | IC50 (HPB-ALL (T-ALL); [11]) | IC50 (HPB-ALL (T-ALL); [12])
7360 nM | 7360 nM | 7360 nM | 5740 nM | 6670 nM | 4820 nM |  |  |  | Cc1c(N(C(=O)c2cc(-c3cc(Cl)ccc3C(=O)N3Cc4ccccc4C[C@H]3CN3CCOCC3)n(C)c2C)c2ccc(O)cc2)cc(C#N)n1C [Compound A2, reference compound] | 124 nM | 128 nM | 121 nM | 35.5 nM | 30 nM | 41 nM | 6080 nM | 5850 nM | 6300 nM
74.8 nM | 56.7 nM | 92.9 nM | 7.78 nM | 5.92 nM | 9.64 nM | 2.8 nM | 3 nM | 2.9 nM | Cc1c(Nc2nc3ccccc3s2)nnc2c1CCCN2c1ccc(-c2cnn(CC34CC5(C)CC(C)(C3)CC(OCCNCCCO)(C5)C4)c2C)c(C(=O)O)n1 [P25, 6-[3-(1,3-benzothiazol-2-ylamino)-4-methyl-6,7-dihydro-5H-pyrido[2,3-c]pyridazin-8-yl]-3-[1-[[3-[2-(3-hydroxypropylamino)ethoxy]-5,7-dimethyl-1-adamantyl]methyl]-5-methyl-pyrazol-4-yl]pyridine-2-carboxylic acid] | 1.75 nM | 2.1 nM | 1.39 nM | 1.03 nM | 0.8 nM | 1.26 nM | 4.6 nM | 4.2 nM | 5 nM

Compound | IC50 (MM1S (MM); [7]) | IC50 (MM1S (MM); [8]) | IC50 (MM1S (MM); [9]) | IC50 (SUDHL8 (DLBCL); [13]) | IC50 (SUDHL8 (DLBCL); [14]) | IC50 (SUDHL8 (DLBCL); [15]) | IC50 (H1650 cells; experiment n1, read-out: H1650 3D CTG IC50 n1) | IC50 (H1650 cells; experiment n2, read-out: H1650 3D CTG IC50 n2) | IC50 (H1650 cells; mean of n1 and n2, read-out: H1650 3D CTG IC50 Mean of n1 and n2) | IC50 (ALL-SILL (T-ALL); [1]) | IC50 (ALL-SILL (T-ALL); [2]) | IC50 (ALL-SILL (T-ALL); [3]) | IC50 (LOUCY (T-ALL); [4]) | IC50 (LOUCY (T-ALL); [5]) | IC50 (LOUCY (T-ALL); [6]) | IC50 (HPB-ALL (T-ALL); [10]) | IC50 (HPB-ALL (T-ALL); [11]) | IC50 (HPB-ALL (T-ALL); [12])
CC1(C)CCC(CN2CCN(c3ccc(C(=O)NS(=O)(=O)c4ccc(NCC5CCOCC5)c([N+](=O)[O-])c4)c(Oc4cnc5[nH]ccc5c4)c3)CC2)=C(c2ccc(Cl)cc2)C1 [ABT-199, reference compound] | 4540 nM | 4470 nM | 4600 nM | 6140 nM | 4820 nM | 7460 nM |  |  |  | 224 nM | 234 nM | 213 nM | 24.5 nM | 19 nM | 30 nM | 9060 nM | 8920 nM | 9210 nM
